# Test: Clinical bioavailability study: renal excretion of flavones over 24 h after oral rutin
# Format: in vivo, gesunden Probanden
# Details: Rutin molecularly dispersed in gelatin, taken by volunteers
# Source text: Die nahrungsbedingte Flavonausscheidung wurde dabei berücksichtigt und durch entsprechende Diätvorschriften möglichst gering gehalten.
# Die Analytik und Identifikation der Flavonausscheidungen kann z.B. wie folgt durchgeführt werden: • 1. Saure Spaltung ( 1 M Salzsäure) der in biologischen Flüssigkeiten (Urin) enthaltenen Flavonkonjugate. • 2. Festphasenextraktion mit Methanol zur Anreicherung der freigesetzten Flavone (z.B. Extrelut^R, Fa. Merck). • 3. HPLC-Analytik mit Diodenarray-Detektion und Identifizierung einzelner Flavone, zusätzlich elektrochemische Identifikation (anodisches Oxidationspotential).
# Die Empfindlichkeit der genannten Analytik ist >10 ng Flavon pro ml.
smiles,measurement,value
C[C@@H]1O[C@@H](OC[C@H]2O[C@@H](Oc3c(-c4ccc(O)c(O)c4)oc4cc(O)cc(O)c4c3=O)[C@H](O)[C@@H](O)[C@@H]2O)[C@H](O)[C@H](O)[C@H]1O [Rutin],Metaboliten in vivo,"Quercetin, Kämpferol und Isorhamnetin"

# Reference: EP0577143A2, “Solid and liquid solutions of flavonoids” (ALFATEC-PHARMA GmbH, priority 1992, dated 1994)
